# Test: Phase 1 multiple ascending dose study of grapiprant tablets: serum pharmacokinetics
# Format: in vivo, human
# Details: for Rac (Day 14/Day 1) / half-life / Cmax / AUC(0-t): mean; for increase of mean systemic exposure (AUC and Cmax) with dose: 14 days; for half-life / Cmax / AUC(0-t) / Tmax: human, oral, serum; for Tmax: median
# From the text: Serum pharmacokinetic parameters can be computed using WinNonlin Version 3.2 (Pharsight®, Mountain View, Calif.) using standard non-compartmental methods. As used herein, the term “Cmax” refers to the maximum observed serum concentration of grapiprant estimated directly from concentration versus time data. As used herein, the term “Tmax” refers to the time of the first occurrence of Cmax. As used herein, the term “AUC(0-tlast)” refers to the area under the serum concentration vs. time curve from time 0 to Tlast (the time of the last quantifiable concentration estimated using the linear/log trapezoidal approximation). When data permitted, the terminal elimination rate constant (kel) was estimated using linear least-square regression analysis of the serum concentration-time data obtained during the terminal log-linear phase. As used herein, the term “AUC(0-inf)” refers to AUC(0-tlast) extrapolated to infinity, which is calculated as the sum of AUC(0-tlast) and Cest/kel, wherein Cest is the predicted plasma concentration obtained from the log linear regression analysis at the last quantifiable time point. As used herein, the term “t½” refers to terminal phase half-life calculated as ln(2)/kel. As used herein, the term “AUC(last-inf)” refers to the area under the serum concentration versus time curve from Tlast to infinity, which is estimated as Cpest/kel, wherein Cpest represented the estimated concentration at time Tlast based on the aforementioned regression analysis. As used herein, the term “AUCτ” refers to the area under the serum concentration versus time curve over the dosing interval. As used herein, the term “Rac” refers to the accumulation ratio of grapiprant in the serum, which is calculated as a measure of drug accumulation at steady state compared to Day 1. Rac for the 14 day oral administration described herein is calculated using the equation: Rac=(Day 14 AUCτ/Day 1 AUCτ). Rac for the 17 day oral administration described herein is calculated using the equation: Rac=(Day 17 AUCτ/Day 1 AUCτ). Day 17 is used as steady state in the elderly group of subjects, which is Day 14 of the multiple dosing period for these subjects.
# As used herein, the terms “cohort 1”, “cohort 2”, and “cohort 3” refer to studies where grapiprant tablets are administered at dosage levels of 50 mg, 150 mg, and 300 mg, respectively, in healthy adult subjects with a 14 day oral administration regimen as follows: one dose in the morning in a fasting state on day 1; twice daily (BID, approximately every 12 hours) on days 2 through 13: one dose in a fasting state in the morning, and one dose in the evening on an empty stomach; and one dose in the morning in a fasting state on day 14.
# As used herein, the term “cohort 5” and/or “cohort 6” refers to a study where grapiprant tablets are administered at a dosage level of 250 mg in elderly subjects with minor renal impairment with a 17 day oral administration regimen as follows: one dose in the morning in a fasting state on day 1; twice daily (BID, approximately every 12 hours) on days 4 through 16: one dose in a fasting state in the morning, and one dose in the evening on an empty stomach; and one dose in the morning in a fasting state on day 17.
# Dosing and Duration: In Cohorts 1-3, study medication was administered once daily in the morning on Days 1 and 14, and twice daily (BID, approximately every 12 hours) on Days 2 through 13. In Cohorts 5 and 6, study medication was administered once daily in the morning on Day 1, BID on Days […] through 16, and once in the morning on Day 17. In all cohorts dosing was to be in the fasting state for the morning dose and on an “empty stomach” for the evening dose.
# Pharmacokinetic Evaluations: Serial blood samples for serum PK evaluations of grapiprant began prior to dosing on Day 1 and continued until 48 hours following Day 14 dosing (Cohorts 1-3) or until 24 hours following Day 17 dosing (Cohorts 5 and 6). […]
# [1] = 50 mg, 50 mg BID tablets, Day 1, healthy adults
# [2] = 50 mg, 50 mg BID tablets, Day 14, healthy adults
# [3] = 150 mg, 150 mg BID tablets, Day 1, healthy adults
# [4] = 150 mg, 150 mg BID tablets, Day 14, healthy adults
# [5] = 250 mg, 250 mg BID tablets, Day 1, elderly with mild renal impairment
# [6] = 250 mg, 250 mg BID tablets, Day 17, elderly with mild renal impairment
# [7] = 300 mg, 300 mg BID tablets, Day 1, healthy adults
# [8] = 300 mg, 300 mg BID tablets, Day 14, healthy adults
smiles,measurement,setting,value
"CCc1nc2c(C)nc(C)cc2n1-c1ccc(CCNC(=O)NS(=O)(=O)c2ccc(C)cc2)cc1 [Grapiprant, N-((4-(2-ethyl-4,6-dimethyl-1H-imidazo[4,5-c]pyridin-1-yl)phenethyl)carbamoyl)-4-methylbenzenesulfonamide]",Rac (Day 14/Day 1),"50 mg BID tablets, Day 14 AUCT/Day 1 AUCT, healthy adults",1.13
same,Rac (Day 14/Day 1),"150 mg BID tablets, Day 14 AUCT/Day 1 AUCT, healthy adults",1.20
same,Rac (Day 14/Day 1),"250 mg BID tablets, Day 17 AUCT/Day 1 AUCT, elderly with mild renal impairment",1.54
same,mean exposure compared with the 300 mg BID healthy adult group,"250 mg BID, elderly subjects with mild renal impairment",slightly greater
same,Rac (Day 14/Day 1),"300 mg BID tablets, Day 14 AUCT/Day 1 AUCT, healthy adults",1.33
same,increase of mean systemic exposure (AUC and Cmax) with dose,"between 50 and 150 mg BID, tablets, healthy adults",approximately dose proportional
same,increase of mean exposures,"dose increased 2-fold from 150 mg BID to 300 mg BID, healthy adults",approximately 3 fold
same,increase of mean systemic exposure (AUC and Cmax) with dose,"dose increased from 150 mg BID to 300 mg BID, healthy adults",greater than dose proportional increase
same,half-life,"50 mg BID tablets, Day 14, healthy adults",6.47 h
same,half-life,"150 mg BID tablets, Day 14, healthy adults",9.71 h
same,half-life,"250 mg BID tablets, Day 1, elderly with mild renal impairment",8.63 h
same,half-life,"300 mg BID tablets, Day 14, healthy adults",8.76 h
same,Cmax,"50 mg, 50 mg BID tablets, Day 1 (n = 9), healthy adults",0.578 µg/mL
same,AUC(0-t),[1],3.15 µg·h/mL
same,Tmax,[1],1.5 h
same,Cmax,"50 mg, 50 mg BID tablets, Day 14 (n = 8), healthy adults",0.611 µg/mL
same,AUC(0-t),[2],3.37 µg·h/mL
same,Tmax,[2],1.25 h
same,Cmax,"150 mg, 150 mg BID tablets, Day 1 (n = 9), healthy adults",2.15 µg/mL
same,AUC(0-t),[3],8.97 µg·h/mL
same,Tmax,[3],1.5 h
same,Cmax,"150 mg, 150 mg BID tablets, Day 14 (n = 9), healthy adults",2.67 µg/mL
same,AUC(0-t),[4],10.3 µg·h/mL
same,Tmax,[4],1.5 h
same,Cmax,"250 mg, 250 mg BID tablets, Day 1 (n = 15), elderly with mild renal impairment",10.3 µg/mL
same,AUC(0-t),[5],30.1 µg·h/mL
same,Tmax,[5],1 h
same,Cmax,"250 mg, 250 mg BID tablets, Day 17 (n = 14), elderly with mild renal impairment",12.3 µg/mL
same,AUC(0-t),[6],40.2 µg·h/mL
same,Tmax,[6],1 h
same,Cmax,"300 mg, 300 mg BID tablets, Day 1 (n = 9), healthy adults",8.24 µg/mL
same,AUC(0-t),[7],24.9 µg·h/mL
same,Tmax,[7],1.5 h
same,Cmax,"300 mg, 300 mg BID tablets, Day 14 (n = 9), healthy adults",10.4 µg/mL
same,AUC(0-t),[8],32.3 µg·h/mL
same,Tmax,[8],1 h

# Reference: patent US20210353648A1, “GRAPIPRANT UNIT DOSAGE FORMS” (Arrys Therapeutics, Inc., priority 2018, published 2021)
